# Reference: ChEMBL document CHEMBL1649172, “Novel imino sugar derivatives demonstrate potent antiviral activity against flaviviruses” (Antimicrob Agents Chemother, 2009)
# Calls of active or inactive are those of the source. No cut-off for these calls is given here.
# Key:
# [1] = Cytotoxicity against MDBK cells by MTT assay; format: cell-based, Bos taurus; settings: cattle
# [2] = Selectivity index, ratio of CC50 for bovine MDBK cells to EC50 for 1 MOI Bovine viral diarrhea virus infected in bovine MDBK cells; format: toxicity, cell-based; settings: cattle; read-out: Ratio CC50/EC50
# [3] = Antiviral activity against 1 MOI Bovine viral diarrhea virus NADL infected in MDBK cells assessed as reduction in viral titer after 72 hrs by plaque forming assay; format: functional, cell-based, Bovine viral diarrhea virus 1-NADL; settings: Bovine viral diarrhea virus isolates and strains
# [4] = Cytotoxicity against african green monkey Vero cells by MTT assay; format: cell-based; settings: chlorocebus sabaeus
# [5] = Cytotoxicity against BHK cells by MTT assay; format: cell-based, Mesocricetus auratus; settings: hamster
# West Nile virus = experiment: Antiviral activity against West Nile virus infected in baby hamster kidney cells assessed as reduction in viral titer after 72 hrs by plaque reduction assay; format: functional, organism-based
# Dengue virus [6] = experiment: Antiviral activity against Dengue virus C infected in african green monkey Vero cells assessed as reduction in viral titer after 72 hrs by plaque reduction assay; format: functional, organism-based
# Dengue virus [7] = experiment: Antiviral activity against Dengue virus; format: functional, organism-based
# [8] = test system: Bovine viral diarrhea virus 1; experiment: Antiviral activity against Bovine viral diarrhea virus 1; format: functional, organism-based; settings: Bovine viral diarrhea virus isolates and strains
# [9] = Antiviral activity against 1 MOI Bovine viral diarrhea virus NADL infected in bovine MDBK cells assessed as reduction in viral titer at 80 uM after 24 hrs by RT-PCR; format: functional, Bovine viral diarrhea virus 1-NADL; settings: Bovine viral diarrhea virus isolates and strains
# MDBK [10] = experiment: Antiviral activity against 1 MOI Bovine viral diarrhea virus NADL infected in bovine MDBK cells assessed as inhibition of viral RNA replication at 80 uM after 6 hrs by RT-PCR; format: functional, cell-based; settings: Bovine viral diarrhea virus 1-NADL
# [11] = Antiviral activity against 1 MOI Bovine viral diarrhea virus NADL infected in bovine MDBK cells assessed as inhibition of extracellular viral RNA production at 100 uM after 24 hrs by RT-PCR; format: functional, Bovine viral diarrhea virus 1-NADL; settings: Bovine viral diarrhea virus isolates and strains
# [12] = Antiviral activity against 1 MOI Bovine viral diarrhea virus NADL infected in bovine MDBK cells assessed as inhibition of viral RNA replication at 100 uM after 24 hrs by RT-PCR; format: functional, Bovine viral diarrhea virus 1-NADL; settings: Bovine viral diarrhea virus isolates and strains
# MDBK [13] = experiment: Antiviral activity against 1 MOI Bovine viral diarrhea virus NADL infected in bovine MDBK cells assessed as inhibition of viral RNA replication at 100 uM after 6 hrs by RT-PCR; format: functional, cell-based; settings: Bovine viral diarrhea virus 1-NADL
# [14] = test system: Bovine viral diarrhea virus 1-NADL; experiment: Inhibition of […] assessed as reduced E2 protein mobility after 24 hrs by Western blotting
# [15] = (§1) Antiviral activity against 1 MOI Bovine viral diarrhea virus NADL infected in bovine MDBK cells assessed as inhibition of viral RNA replication at 80 uM after 24 hrs by RT-PCR; format: functional, Bovine viral diarrhea virus 1-NADL; settings: Bovine viral diarrhea virus isolates and strains
# MDBK [16] = experiment: Antiviral activity against 1 MOI Bovine viral diarrhea virus NADL infected in bovine MDBK cells assessed as inhibition of viral RNA replication at 100 uM after 12 hrs by RT-PCR; format: functional, cell-based; settings: Bovine viral diarrhea virus 1-NADL
# [17] = Antiviral activity against 1 MOI Bovine viral diarrhea virus NADL infected in bovine MDBK cells assessed as inhibition of intracellular viral RNA production at 100 uM after 24 hrs by RT-PCR; format: functional, Bovine viral diarrhea virus 1-NADL; settings: Bovine viral diarrhea virus isolates and strains
# [18] = Antiviral activity against 1 MOI Bovine viral diarrhea virus NADL infected in bovine MDBK cells assessed as inhibition of extracellular viral RNA production at 80 uM after 24 hrs by RT-PCR; format: functional, Bovine viral diarrhea virus 1-NADL; settings: Bovine viral diarrhea virus isolates and strains
# [19] = Antiviral activity against 1 MOI Bovine viral diarrhea virus NADL infected in bovine MDBK cells assessed as inhibition of intracellular viral RNA production at 80 uM after 24 hrs by RT-PCR; format: functional, Bovine viral diarrhea virus 1-NADL; settings: Bovine viral diarrhea virus isolates and strains
# [20] = Antiviral activity against 1 MOI Bovine viral diarrhea virus NADL infected in bovine MDBK cells assessed as reduction in viral titer at 100 uM after 24 hrs by RT-PCR; format: functional, Bovine viral diarrhea virus 1-NADL; settings: Bovine viral diarrhea virus isolates and strains
# MDBK [21] = experiment: Antiviral activity against 1 MOI Bovine viral diarrhea virus NADL infected in bovine MDBK cells assessed as inhibition of viral RNA replication at 80 uM after 12 hrs by RT-PCR; format: functional, cell-based; settings: Bovine viral diarrhea virus 1-NADL
# MDBK [22] = experiment: as §1; format: functional; settings: Bovine viral diarrhea virus 1-NADL
Compound,CC50 [1] [µM],selectivity ratio [2],EC50 [3] [µM],EC90 [3] [µM],CC50 [4] [µM],CC50 [5] [µM],EC50 (West Nile virus) [µM],EC50 (Dengue virus [6]) [µM],EC90 (Dengue virus [6]) [µM],further results
CCCC(O)(CCC)CCCCCN1C[C@H](O)[C@@H](O)[C@H](O)[C@H]1CO,> 500,> 53,9.5,> 100,,,,,,
CCCCCCCCCN1C[C@H](O)[C@@H](O)[C@H](O)[C@H]1CO,245,33,7.3,71,> 40,20,4,1.1,3.3,
CC(C)[C@@H]1CC[C@@H](C)CC1OCCCCCCN1C[C@H](O)[C@@H](O)[C@H](O)[C@H]1CO (stereo partly specified),235,146,1.6,14.8,80,70,4.75,0.1,0.2,EC90 (West Nile virus): 19 µM
CCCCN1C[C@H](O)[C@@H](O)[C@H](O)[C@H]1CO [MIGLUSTAT],,,,,,,,,,EC50 (Dengue virus [7]): 100 µM; EC50 [8]: 100 µM
CCC(O)(CC)CCCCCN1C[C@H](O)[C@@H](O)[C@H](O)[C@H]1CO,> 500,> 23,22,> 100,,,,,,
OC[C@@H]1[C@@H](O)[C@H](O)[C@@H](O)CN1CCCCCCC1(O)CCCCC1,> 500,> 28,18,82.5,,,,,,
C[C@@H]1CCCCC1OCCCCCCN1C[C@H](O)[C@@H](O)[C@H](O)[C@H]1CO (stereo partly specified),> 500,> 151,3.3,14.3,65,70,3.5,0.075,0.6,EC90 (West Nile virus): 33 µM
OC[C@@H]1[C@@H](O)[C@H](O)[C@@H](O)CN1CCCCCOCC1CC2CCC1C2 (stereo partly specified),> 500,> 172,2.9,22,,,,,,
OC[C@@H]1[C@@H](O)[C@H](O)[C@@H](O)CN1CCCCCC1(O)CCCCC1,> 500,> 48,10.5,> 100,> 40,> 100,4.5,4,8.7,inhibition at 80 µM [9]: 89%; inhibition (MDBK [10]): inactive; inhibition at 100 µM [11]: 73%; inhibition at 100 µM [12]: 40%; inhibition (MDBK [13]): inactive; inhibition [14]: Dose-dependent effect; inhibition at 80 µM [15]: 40%; inhibition (MDBK [16]): inactive; inhibition at 100 µM [17]: 40%; inhibition at 80 µM [18]: 73%; inhibition at 80 µM [19]: 40%; inhibition at 100 µM [20]: 89%; inhibition (MDBK [21]): inactive
Cc1ccc(C)c(OCCCCCCN2C[C@H](O)[C@@H](O)[C@H](O)[C@H]2CO)c1,485,162,3,24.9,85,75,1.5,0.1,0.6,EC90 (West Nile virus): 20 µM
CC1CCC(OCCCCCCN2C[C@H](O)[C@@H](O)[C@H](O)[C@H]2CO)CC1 (stereo partly specified),> 500,> 70,7.1,53,> 40,,,6.75,13,inhibition at 80 µM [9]: 89%; inhibition at 100 µM [11]: 73%; inhibition at 100 µM [12]: 40%; inhibition at 80 µM [15]: 40%; inhibition (MDBK [22]): Active; inhibition (MDBK [16]): inactive; inhibition at 100 µM [17]: 40%; inhibition at 80 µM [18]: 73%; inhibition at 80 µM [19]: 40%; inhibition at 100 µM [20]: 89%; inhibition (MDBK [21]): inactive
OC[C@@H]1[C@@H](O)[C@H](O)[C@@H](O)CN1CCCCCCOC1CC2CCC1C2 (stereo partly specified),> 500,> 111,4.5,47,,,,,,
